From the NIST ThermoML archive (doi:10.1021/acs.jced.6b01071)
Numbers after ± are expanded uncertainties.

Tests used:
[1] = Liquid; for mass density: 298.15 K, 101.33 kPa, Vibrating tube method; for vapor or sublimation pressure: Ebulliometric method (Recirculating still)
[2] = Boiling temperature at pressure P; details: 101.3 kPa; Liquid; Ebulliometric method (Recirculating still)
[3] = refractive index (Na D-line) (dimensionless); details: 298.15 K; 101.33 kPa; Liquid; Standard Abbe refractometry

SMILES | mass density [1] [kg/m3] | vapor or sublimation pressure ([1]; 381.15 K) [kPa] | vapor or sublimation pressure ([1]; 381.41 K) [kPa] | vapor or sublimation pressure ([1]; 395.9 K) [kPa] | vapor or sublimation pressure ([1]; 396.04 K) [kPa] | vapor or sublimation pressure ([1]; 406.39 K) [kPa] | vapor or sublimation pressure ([1]; 406.59 K) [kPa] | Boiling temperature at pressure P [2] [°C] | refractive index [3] | vapor or sublimation pressure ([1]; 384.76 K) [kPa] | vapor or sublimation pressure ([1]; 400.65 K) [kPa] | vapor or sublimation pressure ([1]; 411.56 K) [kPa] | vapor or sublimation pressure ([1]; 309.68 K) [kPa] | vapor or sublimation pressure ([1]; 320.76 K) [kPa] | vapor or sublimation pressure ([1]; 328.55 K) [kPa]
COCC(C)OC(C)=O (stereo unspecified) [1-methoxy-2-propyl acetate] | 961.52 ± 5 | 30 ± 1 | 30 ± 1 | 50 ± 1 | 50 ± 1 | 70 ± 1 | 70 ± 1 | 145.57 ± 0.2 | 1.3986 ± 0.01 |  |  |  |  |  | 
CN(C)C=O [dimethylformamide] | 943.89 ± 5 |  |  |  |  |  |  | 153.50 ± 0.2 | 1.4277 ± 0.01 | 30 ± 1 | 50 ± 1 | 70 ± 1 |  |  | 
CO [methanol] | 786.59 ± 5 |  |  |  |  |  |  | 64.48 ± 0.2 | 1.3264 ± 0.01 |  |  |  | 30 ± 1 | 50 ± 1 | 70 ± 1
